In general, DC50 refers to the concentration giving 50% degradation. A lower DC50 goes with a more potent degrader.

This note sets out measurements from patent US11420956B2, “Ureas having Androgen Receptor degradation activity and uses thereof” (ACCUTAR BIOTECHNOLOGY INC., priority 2019, dated 2022).

This assay addresses T1, androgen receptor (AR) (Homo sapiens, UniProt P10275, T878A).
T1 construct: endogenous in cells; host or cells: LNCAP
T1 sequence (P10275 1-920 T878A): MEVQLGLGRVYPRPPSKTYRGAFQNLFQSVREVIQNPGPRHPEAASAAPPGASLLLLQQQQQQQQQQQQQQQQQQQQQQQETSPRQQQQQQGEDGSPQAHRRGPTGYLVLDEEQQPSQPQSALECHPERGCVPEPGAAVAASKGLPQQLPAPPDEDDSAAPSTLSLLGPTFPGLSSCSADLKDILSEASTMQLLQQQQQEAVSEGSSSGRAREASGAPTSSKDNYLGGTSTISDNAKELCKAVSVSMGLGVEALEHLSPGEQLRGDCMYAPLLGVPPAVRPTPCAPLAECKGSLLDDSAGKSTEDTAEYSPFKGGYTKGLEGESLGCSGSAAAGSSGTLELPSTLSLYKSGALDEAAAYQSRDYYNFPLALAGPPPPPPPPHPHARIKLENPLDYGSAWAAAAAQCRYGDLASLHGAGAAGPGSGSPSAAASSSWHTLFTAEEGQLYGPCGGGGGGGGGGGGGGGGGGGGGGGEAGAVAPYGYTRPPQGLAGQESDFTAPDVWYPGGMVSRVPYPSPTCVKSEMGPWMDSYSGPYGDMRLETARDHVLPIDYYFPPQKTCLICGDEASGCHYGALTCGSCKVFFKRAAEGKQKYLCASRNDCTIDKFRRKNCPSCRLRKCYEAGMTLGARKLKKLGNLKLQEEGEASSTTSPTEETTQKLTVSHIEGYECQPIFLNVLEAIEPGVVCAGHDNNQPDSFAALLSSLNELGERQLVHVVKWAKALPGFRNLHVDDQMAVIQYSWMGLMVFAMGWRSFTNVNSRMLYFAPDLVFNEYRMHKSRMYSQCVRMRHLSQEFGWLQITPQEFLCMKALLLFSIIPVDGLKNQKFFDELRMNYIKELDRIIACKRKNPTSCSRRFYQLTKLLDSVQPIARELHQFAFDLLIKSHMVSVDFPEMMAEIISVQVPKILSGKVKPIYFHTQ
Kind of assay: AR degradation in LNCAP cells (Western blot). Format: cell-based. As to conditions: 24 hours after administration. The procedure: LNCAP, VCAP and 22Rv1 cells were plated in 24-well plates at 1.5×10E5 cells/well in the RPMI growth medium containing 10% FBS and 1% Penicillin Streptomycin, and then incubated at 37° C. overnight. The following day, the test compound was administered to the cells by using 1000× compound stock solution prepared in DMSO at various concentrations. After administration of the compound, the cells were then incubated at 37° C. for 24 hours. Upon completion, the cells were washed with PBS and protein was collected in Laemmli sample buffer (1×; VWR International). Proteins in cell lysate were separated by SDS-PAGE and transferred to Odyssey nitrocellulose membranes (Licor) with iblot® dry blotting transfer system (ThermoFisher). Nonspecific binding was blocked by incubating membranes with Intercept Blocking Buffer (Licor) for 1 hour at room temperature with gentle shaking. The membranes were then incubated overnight at 4° C. with Primary antibodies rabbit anti-AR (1:1,000, Cell Signaling, 5153) and mouse anti-GAPDH (1:5,000, Santa Cruz Biotechnology, sc-47724) diluted in Intercept Blocking Buffer containing 0.1% Tween 20. After washing 3 times with TBS-T, the membranes were incubated with IRDye® […] goat anti-mouse IgG (1:20,000, Licor) or IRDye® […] goat anti-rabbit IgG (1:20,000, Licor) for 1 hour. After TBS-T washes, membranes were rinsed in TBS and scanned on Odyssey® CLx Imaging System (Licor). The bands were quantified using Image Studio™ Software (Licor).
Tables 5 and 6 summarize the androgen receptor (AR) degradative activity of exemplary compounds in LNCAP, VCAP and 22Rv1 cell lines 24 hours after administration. DC50: compound concentration needed for 50% target protein degradation.
(In general: A western blot detects proteins with antibodies after separation by electrophoresis.)

Compound `C[C@@H]1CN(c2ccc(C#N)c(Cl)c2)[C@@H](C)CN1C(=O)Nc1ccc(OCCCCN(C)C2CC(Oc3ccc4c(c3)C(=O)N(C3CCC(=O)NC3=O)C4=O)C2)nc1` (stereo partly drawn) [Compound 1-8, (2R,5S)-4-(3-chloro-4-cyanophenyl)-N-(6-(4-(((1r,3r)-3-((2-(2,6-dioxopiperidin-3-yl)-1,3-dioxoisoindolin-5-yl)oxy)cyclobutyl)(methyl)amino)butoxy)pyridin-3-yl)-2,5-dimethylpiperazine-1-carboxamide] registered a half-maximal degradation concentration (DC50) not above 10 nM.

With `C[C@@H]1CN(c2ccc(C#N)c(Cl)c2)[C@@H](C)CN1C(=O)Nc1ccc(N2CCC(CN(C)C3CC(Oc4ccc5c(c4)C(=O)N(C4CCC(=O)NC4=O)C5=O)C3)CC2)nc1` (stereo partly drawn) [Compound 1-9, (2R,5S)-4-(3-chloro-4-cyanophenyl)-N-(6-(4-((((1r,3r)-3-((2-(2,6-dioxopiperidin-3-yl)-1,3-dioxoisoindolin-5-yl)oxy)cyclobutyl)(methyl)amino)methyl)piperidin-1-yl)pyridin-3-yl)-2,5-dimethylpiperazine-1-carboxamide], the DC50 was not above 10 nM.

For the compound `CCN(CC1CCN(c2ccc(NC(=O)N3C[C@H](C)N(c4ccc(C#N)c(Cl)c4)C[C@H]3C)cn2)CC1)C1CC(Oc2ccc3c(c2)C(=O)N(C2CCC(=O)NC2=O)C3=O)C1` (stereo partly drawn) [Compound 1-10, (2R,5S)-4-(3-chloro-4-cyanophenyl)-N-(6-(4-((((1r,3r)-3-((2-(2,6-dioxopiperidin-3-yl)-1,3-dioxoisoindolin-5-yl)oxy)cyclobutyl)(ethyl)amino)methyl)piperidin-1-yl)pyridin-3-yl)-2,5-dimethylpiperazine-1-carboxamide], the half-maximal degradation concentration (DC50) was in the range of 10 to 100 nM.

Compound `CC(C)N(CC1CCN(c2ccc(NC(=O)N3C[C@H](C)N(c4ccc(C#N)c(Cl)c4)C[C@H]3C)cn2)CC1)C1CC(Oc2ccc3c(c2)C(=O)N(C2CCC(=O)NC2=O)C3=O)C1` (stereo partly drawn) [Compound 1-11, (2R,5S)-4-(3-chloro-4-cyanophenyl)-N-(6-(4-((((1r,3r)-3-((2-(2,6-dioxopiperidin-3-yl)-1,3-dioxoisoindolin-5-yl)oxy)cyclobutyl)(isopropyl)amino)methyl)piperidin-1-yl)pyridin-3-yl)-2,5-dimethylpiperazine-1-carboxamide] gave a DC50 not above 10 nM.

For `CC(C)N(CC1CCN(c2ccc(NC(=O)N3C[C@H](C)N(c4ccc(C#N)c(Cl)c4)C[C@H]3C)cn2)CC1)C1CC(Oc2ccc3c(c2)C(=O)N(C2CCC(=O)NC2=O)C3=O)C1` (stereo partly drawn) [Compound 1-12, (2R,5S)-4-(3-chloro-4-cyanophenyl)-N-(6-(4-((((1s,3s)-3-((2-(2,6-dioxopiperidin-3-yl)-1,3-dioxoisoindolin-5-yl)oxy)cyclobutyl)(isopropyl)amino)methyl)piperidin-1-yl)pyridin-3-yl)-2,5-dimethylpiperazine-1-carboxamide], the DC50 is 10 to 100 nM.

`C[C@@H]1CN(c2ccc(C#N)c(Cl)c2)[C@@H](C)CN1C(=O)Nc1ccc(N2CCC(CN3CCN(c4ccc5c(c4)C(=O)N(C4CCC(=O)NC4=O)C5=O)CC3)CC2)nc1` (stereo partly drawn) [Compound 1-13, (2R,5S)-4-(3-chloro-4-cyanophenyl)-N-(6-(4-((4-(2-(2,6-dioxopiperidin-3-yl)-1,3-dioxoisoindolin-5-yl)piperazin-1-yl)methyl)piperidin-1-yl)pyridin-3-yl)-2,5-dimethylpiperazine-1-carboxamide]: the DC50 is not above 10 nM.

Take `C[C@@H]1CN(c2ccc(C#N)c(Cl)c2)[C@@H](C)CN1C(=O)Nc1ccc(N2CCC(CCN3CCN(c4ccc5c(c4)C(=O)N(C4CCC(=O)NC4=O)C5=O)CC3)CC2)nc1` (stereo partly drawn) [Compound 1-19, (2R,5S)-4-(3-chloro-4-cyanophenyl)-N-(6-(4-(2-(4-(2-(2,6-dioxopiperidin-3-yl)-1,3-dioxoisoindolin-5-yl)piperazin-1-yl)ethyl)piperidin-1-yl)pyridin-3-yl)-2,5-dimethylpiperazine-1-carboxamide]: the DC50 is not above 10 nM.

For `C[C@@H]1CN(c2ccc(C#N)c(Cl)c2)[C@@H](C)CN1C(=O)Nc1ccc(N2CCC(CN3CCN(c4ccc5c(c4)C(=O)N(C4CCC(=O)NC4=O)C5=O)CC3)CC2)cc1F` (stereo partly drawn) [Compound 1-23, (2R,5S)-4-(3-chloro-4-cyanophenyl)-N-(4-(4-((4-(2-(2,6-dioxopiperidin-3-yl)-1,3-dioxoisoindolin-5-yl)piperazin-1-yl)methyl)piperidin-1-yl)-2-fluorophenyl)-2,5-dimethylpiperazine-1-carboxamide], the DC50 is not above 10 nM.

With `COc1cc(N2C[C@@H](C)N(C(=O)Nc3ccc(N4CCC(CN5CCN(c6ccc7c(c6)C(=O)N(C6CCC(=O)NC6=O)C7=O)CC5)CC4)cc3F)C[C@@H]2C)ccc1C#N` (stereo partly drawn) [Compound 1-25, (2R,5S)-4-(4-cyano-3-methoxyphenyl)-N-(4-(4-((4-(2-(2,6-dioxopiperidin-3-yl)-1,3-dioxoisoindolin-5-yl)piperazin-1-yl)methyl)piperidin-1-yl)-2-fluorophenyl)-2,5-dimethylpiperazine-1-carboxamide], the DC50 is not above 10 nM.

`COc1cc(N2C[C@@H](C)N(C(=O)Nc3ccc(N4CCC(CN5CCN(c6ccc7c(c6)CN([C@H]6CCC(=O)NC6=O)C7=O)CC5)CC4)nc3)C[C@@H]2C)ccc1C#N` [Compound 1-33, (2R,5S)-4-(4-cyano-3-methoxyphenyl)-N-(6-(4-((4-(2-((S)-2,6-dioxopiperidin-3-yl)-1-oxoisoindolin-5-yl)piperazin-1-yl)methyl)piperidin-1-yl)pyridin-3-yl)-2,5-dimethylpiperazine-1-carboxamide] had a DC50 not above 10 nM.

Compound `COc1cc(N2C[C@@H](C)N(C(=O)Nc3ccc(N4CCC(CN5CCN(c6cc7c(cc6F)C(=O)N(C6CCC(=O)NC6=O)C7=O)CC5)CC4)nc3)C[C@@H]2C)ccc1C#N` (stereo partly drawn) [Compound 1-39, (2R,5S)-4-(4-cyano-3-methoxyphenyl)-N-(6-(4-((4-(2-(2,6-dioxopiperidin-3-yl)-6-fluoro-1,3-dioxoisoindolin-5-yl)piperazin-1-yl)methyl)piperidin-1-yl)pyridin-3-yl)-2,5-dimethylpiperazine-1-carboxamide] displayed a DC50 not above 10 nM.

`C[C@@H]1CN(c2ccc(C#N)c(Cl)c2)[C@@H](C)CN1C(=O)Nc1cnc(N2CCC(CN3CCN(c4cc5c(cc4F)C(=O)N(C4CCC(=O)NC4=O)C5=O)CC3)CC2)nc1` (stereo partly drawn) [Compound 1-41, (2R,5S)-4-(3-chloro-4-cyanophenyl)-N-(2-(4-((4-(2-(2,6-dioxopiperidin-3-yl)-6-fluoro-1,3-dioxoisoindolin-5-yl)piperazin-1-yl)methyl)piperidin-1-yl)pyrimidin-5-yl)-2,5-dimethylpiperazine-1-carboxamide] gave a DC50 not above 10 nM.

The compound `C[C@@H]1CN(c2ccc(C#N)c(Cl)c2)[C@@H](C)CN1C(=O)Nc1ccc(N2CCC(CN3CCN(c4ccc5c(c4)CN([C@H]4CCC(=O)NC4=O)C5=O)CC3)CC2)nc1` [Compound 1-44, (2R,5S)-4-(3-chloro-4-cyanophenyl)-N-(6-(4-((4-(2-((S)-2,6-dioxopiperidin-3-yl)-1-oxoisoindolin-5-yl)piperazin-1-yl)methyl)piperidin-1-yl)pyridin-3-yl)-2,5-dimethylpiperazine-1-carboxamide] came in with a DC50 not above 10 nM.
